Reference: PMC10819565, “Effects of H2-Receptor Antagonists on the Exposure of Dacomitinib” (Pharmaceutics, 2024)
Converted amounts (≈) assume the structure as drawn. Where two headings read alike, the source gives them in different places.

Assays:
[1] = Disposition PK parameters fitted to intravenous data from the absolute bioavailability study in healthy volunteers; format: in vivo, human; settings: automatic estimation using PK Plus based on IV data from clinical study
Description: (§1) PBPK modeling was used to evaluate the effect of changes in gastric pH on dacomitinib absorption. With physicochemical properties (e.g., Log P, pKa, mean precipitation time) and solubility data at different pH for dacomitinib, a two-compartment model coupled to the ACAT model was built using Gastroplus^TM version 9.7 (Simulation Plus, Inc., Lancaster, CA, USA) with default fasted gut physiology. Disposition PK parameters for dacomitinib were derived by initially fitting the PK data after intravenous (IV) administration from a study where the absolute bioavailability of dacomitinib was estimated by comparing oral to intravenous administration of dacomitinib in healthy volunteers.

[2] = Oral absorption PBPK model (GastroPlus ACAT) simulations and gastric pH parameter sensitivity analysis; parameters: species or system human; settings: 45 mg oral
Description: as §1
The model that utilized the default physiological conditions of Gastroplus was used to simulate the plasma profiles for a 45 mg oral dose in healthy volunteers from the same study. […] The modified model was developed by optimizing the absorption scale factor (ASF) model based on the clinical PK data to reflect the prolonged Tmax of the plasma profile since all the systemic PK parameters were fixed after fitting the IV profile.
The model was validated using the mean plasma profiles of dacomitinib under 3 different conditions or treatments (fasted, fed, and PPI treatment using rabeprazole 40 mg administered QD for 7 days) following oral administration of a 45 mg dose in a clinical study in healthy volunteers to evaluate the food effect and effect of PPIs. In this study, PK samples were collected at the same nominal times of 0, 1, 2, 4, 6, 8, 12, 24, 48, 72, 96, 120, 144, 168, 192, 216 and 264 h post-dose. The mean plasma drug concentration–time profile of dacomitinib was obtained for each condition, namely fasted, fed and PPI treatment, and respective exposure parameters (Cmax and AUCinf) were derived from Gastroplus. The simulation was conducted using Gastroplus with the default physiological conditions of fasted or fed and by setting the gastric pH in the model to 6.0. This allowed for the simulation of the situations corresponding to fasted, fed and PPI treatment, respectively.
The gastric pH in the PBPK model was manipulated to enable the evaluation of a range of pH values from 1.0 to 6.0 during pharmacokinetic (PK) simulations. Parameter sensitivity analyses (PSAs) were performed on the PBPK model to assess the impact of pH variations from 1.0 to 5.0, which mimicked the effect of H2RAs on the absorption of dacomitinib.

[3] = parameters: method as in ref 26 = [26]; 26. US Food and Drug Administration (FDA) VIZIMPRO ® (Dacomitinib) Review Available online: https://www.accessdata.fda.gov/drugsatfda_docs/nda/2018/211288Orig1s000ChemR.pdf (accessed on 6 November 202); settings: cited from earlier work
[4] = parameters: method as in ref 26 = [26]; 26. US Food and Drug Administration (FDA) VIZIMPRO ® (Dacomitinib) Review Available online: https://www.accessdata.fda.gov/drugsatfda_docs/nda/2018/211288Orig1s000ChemR.pdf (accessed on 6 November 202); settings: cited from earlier work; remark: listed apart in the source
[5] = parameters: method as in ref 2 = [2]; 2. US Food and Drug Administration (FDA) VIZIMPRO ® (Dacomitinib) Prescribing Information Available online: https://www.accessdata.fda.gov/drugsatfda_docs/label/2018/211288s000lbl.pdf (accessed on 6 N); settings: with 20 mL locally acting antacid (Maalox Maximum Strength, 400 mg/5 mL); cited from earlier work
[6] = healthy volunteers, cited from earlier work; for AUCinf Observed / Cmax Observed: 45 mg oral
[7] = parameters: method as in ref 26 = [26]; 26. US Food and Drug Administration (FDA) VIZIMPRO ® (Dacomitinib) Review Available online: https://www.accessdata.fda.gov/drugsatfda_docs/nda/2018/211288Orig1s000ChemR.pdf (accessed on 6 November 202); settings: base; cited from earlier work
[8] = Within-patient comparison of steady-state trough concentrations (Ctrough,ss) with and without concomitant H2RA, pooled data from 11 clinical studies; format: in vivo, human; settings: for Ctrough,ss Geometric Mean (Geometric CV%), Test / Ctrough,ss Geometric Mean (Geometric CV%), Reference: patients, dose normalized to 45 mg QD; for Ctrough,ss Geometric Mean (Geometric CV%), Test: dacomitinib co-administered with H2RA (at least 3 days); for Ctrough,ss Geometric Mean (Geometric CV%), Reference: dacomitinib without H2RA
Procedure: This analysis included data from 11 clinical studies. Patients in these studies who received continuous oral dosing schedule of dacomitinib at dose levels of 45 mg once daily (QD), 30 mg QD, 15 mg QD and 60 mg QD, with a cycle duration of 28 days, are included in the analysis dataset. All trials were conducted in accordance with the International Council on Harmonization Good Clinical Practice guidelines and the provisions of the Declaration of Helsinki. The institutional review board or independent ethics committee at each participating center approved the protocol. All patients provided written informed consent before enrollment.
Patients in the 11 studies who received continuous oral dosing schedule of dacomitinib at dose levels of 45 mg once daily (QD), 30 mg QD, 15 mg QD and 60 mg QD, with a cycle duration of 28 days, are included in the analysis dataset. […] PF-05199265 has been identified to have an inhibitory and selectivity profile similar to the parent molecule. For each patient, steady-state trough concentrations (Ctrough,ss) were defined as an observed concentration collected at the nominal predose (0 h) time point on Day 1 of Cycle 2 through Cycle 10 with at least 14 days of continuous dacomitinib dosing at one dose level. Ctrough,ss were dose normalized to 45 mg, calculated as Ctrough,ss times 45 mg/dose for the analysis and reporting.
The Ctrough,ss values were used to represent steady-state exposure in patients following administration of 45 mg QD dacomitinib.
The Ctrough,ss collected prior to any reported H2RA use or at least 14 days after the last reported date of H2RA use served as the dacomitinib without H2RA reference. Dacomitinib co-administered with H2RA as the comparator was defined as Ctrough,ss collected after the use of any reported H2RA continuously for at least 3 days. The H2RAs reported in these studies included cimetidine, famotidine, nizatidine and ranitidine.

[9] = co-administration with PPI (rabeprazole 40 mg QD for 7 days)
[10] = single 45 mg dose after 7 days of rabeprazole 40 mg

In the case of `COc1cc2ncnc(Nc3ccc(F)c(Cl)c3)c2cc1NC(=O)/C=C/CN1CCCCC1` [dacomitinib], the K12 [1] is reported as 0.033 h⁻¹, the K21 [1] is reported as 0.038 h⁻¹ and the V2 [1] is reported as 19.018 L/kg. For the same compound, the Vc [1] was 21.9 L/kg, the clearance ([1]; human, plasma, two-compartment model, healthy volunteers) was 602 mL/min and the “Ratio of AUCinf (predicted-to-observed)” value ([2]; co-administration with PPI) was 0.857. For the same compound, the “Ratio of Cmax (predicted-to-observed)” value ([2]; co-administration with PPI) was 0.940, the “Ratio of AUCinf (predicted-to-observed)” value ([2]; fasted state) was 1.00 and the “Ratio of Cmax (predicted-to-observed)” value ([2]; fasted state) was 1.01. For the same compound, the “Ratio of AUCinf (predicted-to-observed)” value ([2]; fed state) was 1.07, the “Ratio of Cmax (predicted-to-observed)” value ([2]; fed state) was 0.952 and the LogP ([3]; cationic) was 1.8. The LogP ([3]; neutral) was 5.3, the Solubility ([4]; pH 1.28) was 10000 µg/mL (≈ 21300 µM) and the Solubility ([4]; pH 4.71) was 3700 µg/mL (≈ 7870 µM). The Solubility ([4]; pH 5.09) was 340 µg/mL (≈ 723 µM), the Solubility ([4]; pH 5.17) was 230 µg/mL (≈ 489 µM) and the Solubility ([4]; pH 5.3) was 160 µg/mL (≈ 340 µM). The Solubility ([4]; pH 6.13) was 6 µg/mL (≈ 12.8 µM), the Solubility ([4]; pH 6.94) was 1 µg/mL (≈ 2.13 µM) and the “changes in dacomitinib concentrations” value [5] was “did not cause clinically relevant changes”. The “AUCinf Observed” value [6, 9] was 715.96 ng·h/mL, the “Cmax Observed” value [6, 9] was 9.125 ng/mL and the “AUCinf Observed” value ([6]; fasted state) was 1171 ng·h/mL. The “Cmax Observed” value ([6]; fasted state) was 18.41 ng/mL, the “AUCinf Observed” value ([6]; fed state) was 1163 ng·h/mL and the “Cmax Observed” value ([6]; fed state) was 21.35 ng/mL. For the same compound, the “decrease of AUC” value ([6]; co-administration with multiple doses of rabeprazole (a PPI)) was 39%, the “reduction of AUC0-96” value [6, 10] was 39% and the “reduction of Cmax” value [6, 10] was 51%. For the same compound, the pKa [7] was 5.03 (base), the “Ctrough,ss Geometric Mean (Geometric CV%), Test” value [8] was 53.2 ng/mL and the “Ctrough,ss Geometric Mean (Geometric CV%), Test” value ([8]; listed as Dacomitinib) was 53.2 (18.7) ng/mL. For the same compound, the “Ctrough,ss Geometric Mean (Geometric CV%), Reference” value [8] was 57.56 ng/mL, the “Ctrough,ss Geometric Mean (Geometric CV%), Reference” value ([8]; listed as Dacomitinib) was 57.56 (8.4) ng/mL and the “Ctrough,ss Geometric Mean Ratio test/reference (90% CI)” value ([8]; with H2RA vs without H2RA, adjusted, linear mixed effects model) was 85.88 (72.9, 101.11) %.
